Counter-ions that a name gives are not always drawn. Where a SMILES comes first, the peptide text is derived from it.
Legend:
Vγ9Vδ2 T cells = experiment: Phase I escalating dose clinical trial: amplification of Vγ9Vδ2 T cells by flow cytometry in chemotherapy-treated patients; assay type: in vivo, human; details: after second administration (with IL-2)
Protocol: Blood samples (4 ml) were withdrawn into EDTA containing tubes. Tubes were shipped overnight at room temperature (RT) before flow cytometry analyses.
Peripheral lymphocytes were analyzed by flow cytometry on total blood, after triple staining with anti-Vdelta2FITC, anti-CD3PE and anti-CD25PC5 antibodies (Vdelta2-FITC : IMMU389 clone, Immunotech-Beckman-Coulter, Marseilles, France; CD3-PE : UCHTI clone, Immunotech-Beckman-Coulter; CD25PC5 : M-A251 clone, Becton Dickinson, Le Pont de Claix, France).
Briefly, 100 μl patient blood was incubated 15 min at RT with 10 μl anti-Vdelta2-FITC, 10 μl anti-CD3-PE and 10 μl anti-CD25PC5 antibodies. Antibodies were washed with 3 ml 1× PBS, centrifuged for 4 min at 1300 rpm at RT and supernatant was discarded. Red cells were lysed with the OptiLyse B reagent (Immunotech-Beckman-Coulter, Marseilles, France) according to the manufacturer's instructions. At the final step, stained white blood cells were recovered by centrifugation and resuspended in 300 μl 1× PBS+0.2% PFA. Flow cytometry analysis on viable cells was performed on a FacsSCAN apparatus (Becton Dickinson) with the FacsDiva software.
(§1) PHOSPHOST™ (Bromohydrin pyrophosphate, BrHPP) was evaluated in an escalating dose clinical trial in patients with advanced/metastatic solid tumors. The therapeutic regimen and pharmaco-toxicology of BrHPP in combination with low dose of IL-2 have previously been characterized in non human primates. The patients received at least 3 injections of BrHPP 3 weeks apart, concomitant with low dose of IL-2 (1 million IU/m^2/day). Pharmacological response was monitored all along the treatment. Based on the results of the phase I trial, a multicenter phase II study on metastatic RCC patients has been scheduled. The clinical drug product was a 200 mg/vial of lyophilized Phosphostim (expressed in mg equivalent of BrHPP anionic form.). The formulation of Phosphostim was reconstituted immediately prior to use with 2 ml of water for injections to make a 100 mg/ml solution. The reconstituted product was diluted in a total volume of 100 ml of ringer lactate buffer infusion vehicle. Phosphostim was administered intravenously over 1 hour.
All patient cohorts received repeated 3-week cycles of Phosphostim alone for the first cycle and Phosphostim in combination with IL-2 for the subsequent cycles. • first cycle: Phosphostim alone, • subsequent cycles: Phosphostim in combination with IL-2
Patients were sequentially allotted to cohorts of progressively higher dose levels of Phosphostim. […] The objective tumor response was assessed after 3 cycles (i.e., every 9 weeks). […]
Drug plasma levels were measured during the first and the second cycles in all patients. […] Biological effect was monitored throughout the trial and studied on PBMC and plasma. […]

[1] = test system: advanced/metastatic solid tumors; experiment: Phase I clinical trial: progression free survival; assay type: in vivo, human
Protocol: as §1
The clinical trial was therefore a phase I, single arm, open-label, national, multi-center, dose-escalation trial in sequential cohorts of patients with advanced/metastatic solid tumors.
Patients were sequentially allotted to cohorts of progressively higher dose levels of Phosphostim. […] The objective tumor response was assessed after 3 cycles (i.e., every 9 weeks).

γδ T cells [2] = experiment: In vitro BrHPP sensitivity test: 8 day culture of peripheral lymphocytes from CML patients undergoing Gleevec therapy, flow cytometry; assay type: cell-based, human
Protocol: The study intends to test the sensitivity of γ962 T cells from oncology patients to BrHPP. It aims at identifying cancers and or situations in which a BrHPP treatment would be relevant and those for which it would be less or not beneficial. In brief, a small sample of blood is sufficient to prepare PBMCs and culture in the presence of BrHPP. A result of the level of in vitro amplification of gamma-delta cells by BrHPP can be obtained in about 8 days.
Upon reception of blood, 20 ml blood samples were treated by Ficoll gradient to isolate peripheral lymphocytes, which were then frozen. The lymphocytes were cultured in a 96-well plate (1 million cells/ml) for 8 days in the presence of BrHPP. The percentage of γ962 T cells were then determined by a phenotypic assay (flow cytometry).
In such small scale culture assay, a patient is considered to be responsive to an agonist following 8 days of in vitro stimulation according to two criteria: the percentage of γ962 T cells in culture as well as the rate of amplification of these cells. The amplification rate corresponds to the ratio of number of total γ962 T cells at the end of culture to the total γ962 T cells at the start of culture. The qualitative evaluation of these two criteria was divided into four levels of response, according to the Table 2.
A patient is considered sensitive to BrHPP if the sum of the values of the two criteria is ++ or +++. A classification of 0 or + is considered non-sensitive.

γ9δ2 T cells = experiment: Dose range activation of γδ T cells following iv injection of BrHPP (GLP pharmacology studies); assay type: in vivo, non-human primates
[3] = test system: previously treated metastatic breast cancer; details: in vivo; cited from earlier work
various lung cancers = details: in vivo; cited from earlier work
[4] = test system: advanced drug refractory ovarian cancer; details: in vivo; cited from earlier work
γδ T cells [5] = experiment: BrHPP-induced amplification of γδ T cells in monkeys treated with imatinib mesylate; assay type: in vivo; details: BrHPP iv plus IL-2 with oral daily imatinib mesylate 15 mg/kg versus BrHPP alone; days 6 and 20
human γ9δ2 T cells = experiment: Combination of BrHPP and tyrosine kinase inhibitors on amplification of Vd2/Vg9 T cells in NOD SCID mice; assay type: in vivo; details: BrHPP 50 mg/kg i.p. day 0, IL-2 day 0 to 4, TKI from day 0 for 3 to 5 days; peritoneal lavage day 8
Protocol: Cell line: human PBMC whose γ9δ2 T cells percentage is higher than 0.5% and which has been previously tested for the “sensitivity test”. They were thawed one hour before injection and maintained for one hour in complete medium (RPMI 1640 supplemented with 2 mM L-glutamine, 1 mM Sodium Pyruvate (all from Gibco-BRL, Life Science, Invitrogen) and 10% heat inactivated Fetal Calf Serum (Fetal clone)) in incubator at 37° C.
• FITC anti human V82,Immunotech, ref 1464 • PerCpCy5.5 anti human CD3, Pharmingen, ref 552552 • APC anti human Vγ9 • APC Cy7 anti human CD45, Pharmingen, ref 348815 • PE anti human CD56, Pharmingen, ref 556647
Mice used included (a) NOD SCID female mice aged 8-10 weeks from Charles River Laboratories. Mice were fed and housed under sterilized conditions in Innate-Pharma's animal facility, and (b)NOD SCID female mice aged 10-12 weeks bred at Innate Pharma.
Each group contained 5 mice. Following transfer of human PBMC cells described above, the 4 groups received BrHPP (50 mg/kg, i.p.) on day 0 and IL-2 (2 M/m^2, s.c.) every day from day 0 to day 4. […] On day 8 mice were sacrificed, cells were collected by peritoneal lavage, and γ9δ2 T cell proliferation was assessed by flow cytometry.

[6] = test system: histone deacetylase (HDAC); details: cited from earlier work
[7] = phosphostim plus IL-2, iv injection

3-(bromomethyl)-3-butanol-1-yl-diphosphate [BrHPP]
amplification rate of Vγ9Vδ2 T cells (Vγ9Vδ2 T cells; Patient 1 (0035), colon cancer, 1500 mg/m2, within six months of Cetuximab/Irinotecan therapy): 11 × | amplification rate of Vγ9Vδ2 T cells (Vγ9Vδ2 T cells; Patient 2 (0039), colon cancer, 1500, Erbitux/Irinotecan ending within three months before): 6.4 × | amplification rate of Vγ9Vδ2 T cells (Vγ9Vδ2 T cells; Patient 3 (0018), metastatic renal cell carcinoma, 1800 mg/m^2, prior BAY 43-9006 and Avastin ending within a month before): 6.2 × | amplification rate of Vγ9Vδ2 T cells (Vγ9Vδ2 T cells; Patient 4 (0017), colon cancer, 1200 mg/m^2, Oxaliplatin/5FU/Elvorine/Vinflumine ending within three months before): 4.3 × | PFS (progression free survival) ([1]; Patient 3 (0018), metastatic renal cell carcinoma, two cycles, 1800 mg/m^2): 72 weeks | PFS ([1]; Patient 4 (0017), colon cancer, three cycles, 1200 mg/m^2): 39 weeks | non-sensitive patients (γδ T cells [2]; of 19 CML patients undergoing imitanib mesylate treatment): One | patients with values of either ++ or +++ (responsive to BrHPP induced amplification) (γδ T cells [2]; of 19 CML patients undergoing imitanib mesylate treatment, sum of the two criteria of Table 2): 18 patients | γ9δ2 T cell levels return to basal level (γ9δ2 T cells; in most animals (except some treated with a high dose)): 14 days | EC50 in vivo (γ9δ2 T cells; [7]): about 60 mg/kg | dose at which a plateau seems to be reached (γ9δ2 T cells; [7]): 97 mg/kg | dose from which the effect is detected (γ9δ2 T cells; [7]): ≥ 2.4 mg/kg

CC(=O)O[C@H]1C(=O)[C@@]2(C)[C@H]([C@H](OC(=O)c3ccccc3)[C@]3(O)C[C@H](OC(=O)[C@H](O)[C@@H](NC(=O)c4ccccc4)c4ccccc4)C(C)=C1C3(C)C)[C@]1(OC(C)=O)CO[C@@H]1C[C@@H]2O [taxol, Paclitaxel]
response rate [3]: 27-62% | response rate (various lung cancers): 21-37% | response rate [4]: 19-36%

Cc1ccc(NC(=O)c2ccc(CN3CCN(C)CC3)cc2)cc1Nc1nccc(-c2cccnc2)n1 [Gleevec, imatinib mesylate, reference compound]
sensitivity of T cells from Gleevec-treated CML patients to γ9δ2 T cell agonists such as BrHPP (γδ T cells [2]; 8 days culture with BrHPP): remain sensitive | effect on γδ T cell proliferation (percentage of γ9δ2 T cells among total cells) (γδ T cells [5]): does not significantly impair

CNC(=O)c1cc(Oc2ccc(NC(=O)Nc3ccc(Cl)c(C(F)(F)F)c3)cc2)ccn1 [Sorafenib, sorafenib]
effect on γδ T cell proliferation (percentage of γ9δ2 T cells among total cells) (human γ9δ2 T cells): does not impair

O=C(CCCCC[C@@H]1NC(=O)[C@H]2CCCCN2C(=O)[C@H](Cc2ccccc2)NC(=O)[C@H](Cc2ccccc2)NC1=O)C1CO1 (some centres unmarked) [trapoxin (TPX), trapoxin] (HELM PEPTIDE1{F.F.[O=C([C@H]1CCCCN1[*:1])[*:2]].[O=C(CCCCC[C@H](N[*:1])C(=O)[*:2])C1CO1]}$PEPTIDE1,PEPTIDE1,1:R1-4:R2$$$V2.0)
concentration at which HDAC is inhibited [6]: nanomolar concentrations

CC(/C=C/C(=O)NO)=C\[C@@H](C)C(=O)c1ccc(N(C)C)cc1 [trichostatin A]
concentration at which HDAC is inhibited [6]: nanomolar concentrations

Source: US20100029674A1, “Methods of Using Phosphoantigen for the Treatment of Cancer” (INNATE PHARMA, S.A., priority 2007, published 2010)
